According to the supplement of paper PMC5908809:

Assays:
[1] = system: normal NK cells expanded with K562-aAPC; assay: percent inhibition of viability; higher = more inhibition; details: 72 h, IL-2 2.5 ng/mL
Protocol: (§1)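 Drug sensitivity and resistance testing on K562-aAPC-expanded normal NK cells: 5 concentrations (10-fold steps over a 10,000-fold range), 72 h at 37 °C, viability by CellTiter-Glo normalised to DMSO and benzethonium chloride controls; DSS from the fitted curve.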

[2] = system: DERL-7 (IL-2 2.5 ng/mL); assay: as above; details: 72 h
[3] = system: IMC-1 (IL-2 20 ng/mL); assay: as above; details: 72 h
[4] = system: KAI3 (IL-2 2.5 ng/mL); assay: as above; details: 72 h
[5] = system: KHYG-1 (IL-2 2.5 ng/mL); assay: as above; details: 72 h
[6] = system: NK-92 (IL-2 2.5 ng/mL); assay: as above; details: 72 h
[7] = system: NK-YS (IL-2 2.5 ng/mL); assay: as above; details: 72 h
[8] = system: NKL (IL-2 2.5 ng/mL); assay: as above; details: 72 h
[9] = system: SNK-6 (IL-2 2.5 ng/mL); assay: as above; details: 72 h
[10] = system: YT (IL-2 2.5 ng/mL); assay: as above; details: 72 h
[11] = system: normal primary NK cells, pool 1 (3 donors) (IL-2 2.5 ng/mL); assay: as above; details: 72 h
[12] = system: normal primary NK cells, pool 1 (3 donors), resting (IL-2 0 ng/mL); assay: as above; details: 72 h
[13] = system: normal primary NK cells, pool 2 (3 donors) (IL-2 2.5 ng/mL); assay: as above; details: 72 h
[14] = system: normal primary NK cells, pool 3 (3 donors) (IL-2 2.5 ng/mL); assay: as above; details: 72 h
[15] = system: normal NK cells expanded with K562-aAPC; assay: drug sensitivity score (DSS) (DSS units); higher = more sensitive; extreme values may be limits of the assay; details: 72 h; IL-2 2.5 ng/mL
Protocol: as §1

[16] = system: DERL-7 (IL-2 2.5 ng/mL); assay: as above; details: 72 h
[17] = system: IMC-1 (IL-2 20 ng/mL); assay: as above; details: 72 h
[18] = system: KAI3 (IL-2 2.5 ng/mL); assay: as above; details: 72 h
[19] = system: KHYG-1 (IL-2 2.5 ng/mL); assay: as above; details: 72 h
[20] = system: NK-92 (IL-2 2.5 ng/mL); assay: as above; details: 72 h
[21] = system: NK-YS (IL-2 2.5 ng/mL); assay: as above; details: 72 h
[22] = system: NKL (IL-2 2.5 ng/mL); assay: as above; details: 72 h
[23] = system: SNK-6 (IL-2 2.5 ng/mL); assay: as above; details: 72 h
[24] = system: YT (IL-2 2.5 ng/mL); assay: as above; details: 72 h
[25] = system: normal primary NK cells, pool 1 (3 donors) (IL-2 2.5 ng/mL); assay: as above; details: 72 h
[26] = system: normal primary NK cells, pool 1 (3 donors), resting (IL-2 0 ng/mL); assay: as above; details: 72 h
[27] = system: normal primary NK cells, pool 2 (3 donors) (IL-2 2.5 ng/mL); assay: as above; details: 72 h
[28] = system: normal primary NK cells, pool 3 (3 donors) (IL-2 2.5 ng/mL); assay: as above; details: 72 h

CC[C@H](CC#N)OC(=O)N[C@@H](C)c1cccc(NC(=O)Nc2ccc(-c3cnco3)c(OC)c2)c1 [AVN944] (max concentration tested 10000 nM)
percent inhibition of viability [%]
Details	1 nM	10 nM	100 nM	1000 nM	10000 nM
[1]	-4.47	-3.33	15.6	41.6	39.1
[2]	1.82	-0.51	46.2	89.3	94.2
[3]	-3.38	0.07	-49.7	74.7	93.8
[4]	3.06	5.82	42.7	101	97.7
[5]	-0.31	1.95	46.9	96.4	96.2
[6]	-6.77	-7.92	21.9	101	94.4
[7]	1.24	-1.29	45.5	94.6	94
[8]	-10.6	-12.7	32.8	81.2	72.3
[9]	6.47	13.1	56.5	91	96.5
[10]	1.64	0.89	25.8	83.2	83.1
[11]	-6.01	-11.6	1.98	6.68	27.3
[12]	-10.3	-2.43	27.4	7.53	62.7
[13]	-12.8	-4.58	1.01	5.56	16.6
[14]	-8.77	-6.21	4.2	12.5	18.4

Details	drug sensitivity score
[15]	9.68
[16]	22.3
[17]	13.5
[18]	23.1
[19]	23.1
[20]	21.5
[21]	22.9
[22]	19.2
[23]	24.3
[24]	18.9
[25]	2.1
[26]	4.7
[27]	0.8
[28]	1.47

CN1CCN(c2nc(C3=C(c4c[nH]c5ccccc45)C(=O)NC3=O)c3ccccc3n2)CC1 [Sotrastaurin] (max concentration tested 10000 nM)
percent inhibition of viability [%]
Details	1 nM	10 nM	100 nM	1000 nM	10000 nM
[1]	-1.03	-1.43	5.74	19.1	54.6
[2]	-4.78	-0.35	2.08	40.8	89
[3]	-5.62	-0.79	-3.9	0.37	14.4
[4]	1.68	5.93	0.83	15.7	68.5
[5]	-1.7	2.28	1.66	16.2	86.7
[6]	-7.26	-8.85	-22.3	14.4	67.9
[7]	-6.15	-1.7	5.97	11.9	48.6
[8]	-0.06	2.68	21.7	45.5	80
[9]	-17.8	-16.5	-5.18	-2.38	44.5
[10]	-2.44	0.13	0.38	16.3	34.6
[11]	-5.39	7.06	18.6	27.9	44.3
[12]	-32.7	2.96	-3.23	9.18	-53.6
[13]	-13.5	-3.77	5.41	15.2	41.4
[14]	-3.26	-0.15	8.22	5.07	38.6

Details	drug sensitivity score
[15]	5.13
[16]	9.93
[17]	0.22
[18]	6.26
[19]	7.45
[20]	6.04
[21]	4.32
[22]	11.4
[23]	2.08
[24]	3.65
[25]	7.19
[26]	0
[27]	3.66
[28]	2.75
